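Compound exposure: 48 hours, 5 concentrations, 96-well plates. The concentration for full growth arrest is given as TGI.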
Columns and labels:
Test in all cases: NCI-60 cell line screen, 48 h
UACC-62 melanoma = system: UACC-62 melanoma
CCRF-CEM leukemia = system: CCRF-CEM leukemia
U251 CNS = system: U251 CNS
786-0 renal = system: 786-0 renal
EKVX NSCLC = system: EKVX NSCLC
CAKI-1 renal = system: CAKI-1 renal
MDA-MB-435 = system: MDA-MB-435
OVCAR-4 ovarian = system: OVCAR-4 ovarian
OVCAR-3 ovarian = system: OVCAR-3 ovarian
MDA-MB-231 breast = system: MDA-MB-231 breast
HOP-92 NSCLC = system: HOP-92 NSCLC
HCC-2998 colon = system: HCC-2998 colon
K-562 leukemia = system: K-562 leukemia
KM12 colon = system: KM12 colon
OVCAR-8 ovarian = system: OVCAR-8 ovarian
SR leukemia = system: SR leukemia
A498 renal = system: A498 renal
UO-31 renal = system: UO-31 renal
HL-60(TB) leukemia = system: HL-60(TB) leukemia
NCI-H460 lung = system: NCI-H460 lung
SK-MEL-28 melanoma = system: SK-MEL-28 melanoma
SF-539 CNS = system: SF-539 CNS
SK-OV-3 ovarian = system: SK-OV-3 ovarian
SK-MEL-5 melanoma = system: SK-MEL-5 melanoma
TK-10 renal = system: TK-10 renal
HS 578T breast = system: HS 578T breast
SK-MEL-2 melanoma = system: SK-MEL-2 melanoma
LOX IMVI melanoma = system: LOX IMVI melanoma
SNB-19 CNS = system: SNB-19 CNS
IGROV1 ovarian = system: IGROV1 ovarian
MALME-3M melanoma = system: MALME-3M melanoma
NCI-H23 lung = system: NCI-H23 lung
OVCAR-5 ovarian = system: OVCAR-5 ovarian
NCI/ADR-RES ovarian = system: NCI/ADR-RES ovarian
COLO 205 colon = system: COLO 205 colon
RPMI-8226 leukemia = system: RPMI-8226 leukemia
MOLT-4 leukemia = system: MOLT-4 leukemia
SNB-75 CNS = system: SNB-75 CNS
HT29 colon = system: HT29 colon
SF-268 CNS = system: SF-268 CNS
PC-3 prostate = system: PC-3 prostate
A549 NSCLC = system: A549 NSCLC
M14 melanoma = system: M14 melanoma
MCF7 breast = system: MCF7 breast
UACC-257 melanoma = system: UACC-257 melanoma
HCT-116 colon = system: HCT-116 colon
SF-295 CNS = system: SF-295 CNS
DU-145 prostate = system: DU-145 prostate
NCI-H522 lung = system: NCI-H522 lung
HCT-15 colon = system: HCT-15 colon
T-47D breast = system: T-47D breast
ACHN renal = system: ACHN renal
HOP-62 NSCLC = system: HOP-62 NSCLC
NCI-H226 lung = system: NCI-H226 lung
SN12C renal = system: SN12C renal
BT-549 breast = system: BT-549 breast
SW-620 colon = system: SW-620 colon
RXF 393 renal = system: RXF 393 renal

Measured: TGI

O=C(O)CCN(CCC(=O)O)c1ccc(/C=C2\SC(=S)NC2=O)cc1
> 100 µM: all assays above

Reference: PubChem BioAssay (NCI)
